Reference: BigSolDB 2.1

O=Cc1ccc(O)c(Br)c1
solubility (mole fraction)
Conditions | 278.15 K | 283.15 K | 288.15 K | 293.15 K | 298.15 K | 303.15 K | 308.15 K | 313.15 K | 318.15 K | 323.15 K
in 1,4-dioxane | – | – | 0.016 | 0.0188 | 0.022 | 0.0255 | 0.0297 | 0.0345 | 0.0402 | 0.0471
in DMF | 0.0129 | 0.0148 | 0.0171 | 0.02 | 0.0236 | 0.0275 | 0.0321 | 0.0372 | 0.0426 | 0.0488
in DMSO | – | – | – | 0.0177 | 0.0202 | 0.0235 | 0.0278 | 0.0332 | 0.0396 | 0.0467
in acetonitrile | 0.00714 | 0.00815 | 0.00947 | 0.0111 | 0.013 | 0.0152 | 0.0179 | 0.0207 | 0.0238 | 0.0273
in cyclohexane | – | 0.000283 | 0.000369 | 0.000478 | 0.000609 | 0.000766 | 0.000949 | 0.00115 | 0.00139 | 0.00167
in ethanol | 0.00755 | 0.00852 | 0.00981 | 0.0116 | 0.0137 | 0.0161 | 0.0188 | 0.0219 | 0.0254 | 0.0293
in ethyl acetate | 0.00956 | 0.011 | 0.0127 | 0.015 | 0.0176 | 0.0209 | 0.0244 | 0.0287 | 0.0332 | 0.0384
in ethylene glycol | 0.00584 | 0.00666 | 0.00772 | 0.00903 | 0.0107 | 0.0126 | 0.0149 | 0.0177 | 0.0211 | 0.0252
in isobutanol | 0.00978 | 0.0112 | 0.0131 | 0.0155 | 0.0183 | 0.0215 | 0.0251 | 0.0293 | 0.0336 | 0.0386
in isopropanol | 0.0079 | 0.00892 | 0.0104 | 0.0123 | 0.0144 | 0.0171 | 0.0201 | 0.0235 | 0.0272 | 0.0317
in methanol | 0.00568 | 0.00645 | 0.00751 | 0.00881 | 0.0103 | 0.0121 | 0.0142 | 0.0165 | 0.019 | 0.0221
in n-butanol | 0.0106 | 0.0122 | 0.0144 | 0.0168 | 0.0197 | 0.023 | 0.0269 | 0.0313 | 0.0364 | 0.0423
in n-octanol | 0.012 | 0.0138 | 0.0162 | 0.0192 | 0.0226 | 0.0267 | 0.0314 | 0.0365 | 0.0427 | 0.0498
in n-pentanol | 0.0115 | 0.0132 | 0.0153 | 0.0181 | 0.0215 | 0.0252 | 0.0295 | 0.0343 | 0.0401 | 0.0467
in n-propanol | 0.00865 | 0.01 | 0.0117 | 0.0138 | 0.0162 | 0.0191 | 0.0225 | 0.0264 | 0.0308 | 0.0361
in water | 5.93e-05 | 7.11e-05 | 9.02e-05 | 0.000116 | 0.00015 | 0.000196 | 0.00025 | 0.000314 | 0.000395 | 0.000493
